Assay results taken from patent publication US11945798B2, “Substituted aminopyridine compounds as EGFR inhibitors” (YUHAN CORPORATION, priority 2021, dated 2024).
Like-named read-outs stand apart in the source and are kept apart here.

Assays:
[1] = molecular target: EGFR wildtype (WT) (Homo sapiens, UniProt P00533); test: Biochemical EGFR kinase assay (Lance Ultra TR-FRET), wildtype
Method: (§1) Biochemical EGFR kinase assays were conducted using Lance Ultra time-resolved fluorescence resonance energy transfer (TR-FRET) technology from Perkin-Elmer. Compounds of the invention were initially diluted to 20 mM in 100% DMSO for storage and made into kinase buffer solution to create a compound concentration ranging from 0.003 μM and 10 μM.
(§2) Each kinase reactions were incubated at room temperature for 1 hour and then stopped by the addition of 4 μL of stop solution (10 mM EDTA). The specific Europium-labeled-anti-phosphopeptide antibody (PerkinElmer, AD0069) diluted in LANCE detection buffer was then added to a final concentration of 2 nM. After 60 minutes incubation at room temperature the LANCE signal was measured on an EnVision Multilabel Reader (Perkin-Elmer). Excitation wavelength was set at 320 nm and emission monitored at 615 nm (donor) and 665 nm (acceptor). The IC50 values were determined using GraphPad prism software (GraphPad Software, Inc., San Diego, CA, USA).

[2] = molecular target: EGFR del19/T790M/C797S (Homo sapiens, UniProt P00533, C797S/DEL746-750/T790M); test: Biochemical EGFR kinase assay (Lance Ultra TR-FRET), del19/T790M/C797S
Method: as §1, §2

[3] = molecular target: EGFR del19/C797S (Homo sapiens, UniProt P00533, C797S/DEL746-750); test: Biochemical EGFR kinase assay (Lance Ultra TR-FRET), del19/C797S
Sequence of EGFR del19/C797S (P00533 with tags, fused parts or gaps DEL746-750/C797S): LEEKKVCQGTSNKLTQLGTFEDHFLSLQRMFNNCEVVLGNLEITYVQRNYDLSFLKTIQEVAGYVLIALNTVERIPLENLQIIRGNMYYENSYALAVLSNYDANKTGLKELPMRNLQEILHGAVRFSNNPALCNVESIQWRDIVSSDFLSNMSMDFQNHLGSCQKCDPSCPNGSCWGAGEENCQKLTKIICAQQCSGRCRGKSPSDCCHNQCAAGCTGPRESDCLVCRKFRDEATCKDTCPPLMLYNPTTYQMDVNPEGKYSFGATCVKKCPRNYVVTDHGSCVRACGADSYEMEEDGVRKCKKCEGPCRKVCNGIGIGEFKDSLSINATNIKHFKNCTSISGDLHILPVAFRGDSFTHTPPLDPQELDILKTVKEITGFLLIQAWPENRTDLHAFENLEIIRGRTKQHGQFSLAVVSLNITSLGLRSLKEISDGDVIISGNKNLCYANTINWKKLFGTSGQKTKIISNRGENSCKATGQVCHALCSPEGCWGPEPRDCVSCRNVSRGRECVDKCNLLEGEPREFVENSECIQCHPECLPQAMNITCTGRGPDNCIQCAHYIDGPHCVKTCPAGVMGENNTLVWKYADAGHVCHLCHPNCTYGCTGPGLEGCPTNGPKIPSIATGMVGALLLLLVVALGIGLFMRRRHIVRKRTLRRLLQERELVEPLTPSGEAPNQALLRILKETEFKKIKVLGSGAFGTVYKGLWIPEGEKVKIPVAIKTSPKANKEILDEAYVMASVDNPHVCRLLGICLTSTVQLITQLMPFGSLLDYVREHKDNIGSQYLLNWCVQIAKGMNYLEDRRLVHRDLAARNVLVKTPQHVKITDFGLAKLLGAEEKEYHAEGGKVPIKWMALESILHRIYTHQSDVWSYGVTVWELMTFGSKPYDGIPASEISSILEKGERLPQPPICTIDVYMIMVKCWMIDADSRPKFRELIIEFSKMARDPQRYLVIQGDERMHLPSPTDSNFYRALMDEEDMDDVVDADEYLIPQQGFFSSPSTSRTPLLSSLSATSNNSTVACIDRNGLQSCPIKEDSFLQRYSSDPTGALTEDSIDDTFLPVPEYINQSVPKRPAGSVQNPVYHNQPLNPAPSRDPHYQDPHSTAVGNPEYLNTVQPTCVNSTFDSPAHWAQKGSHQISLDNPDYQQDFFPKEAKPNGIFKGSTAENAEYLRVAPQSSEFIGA
Method: as §1, §2

[4] = molecular target: EGFR L858R/C797S (Homo sapiens, UniProt P00533, C797S/L858R); test: Biochemical EGFR kinase assay (Lance Ultra TR-FRET), L858R/C797S
Sequence of EGFR L858R/C797S (P00533 25-1210 C797S/L858R): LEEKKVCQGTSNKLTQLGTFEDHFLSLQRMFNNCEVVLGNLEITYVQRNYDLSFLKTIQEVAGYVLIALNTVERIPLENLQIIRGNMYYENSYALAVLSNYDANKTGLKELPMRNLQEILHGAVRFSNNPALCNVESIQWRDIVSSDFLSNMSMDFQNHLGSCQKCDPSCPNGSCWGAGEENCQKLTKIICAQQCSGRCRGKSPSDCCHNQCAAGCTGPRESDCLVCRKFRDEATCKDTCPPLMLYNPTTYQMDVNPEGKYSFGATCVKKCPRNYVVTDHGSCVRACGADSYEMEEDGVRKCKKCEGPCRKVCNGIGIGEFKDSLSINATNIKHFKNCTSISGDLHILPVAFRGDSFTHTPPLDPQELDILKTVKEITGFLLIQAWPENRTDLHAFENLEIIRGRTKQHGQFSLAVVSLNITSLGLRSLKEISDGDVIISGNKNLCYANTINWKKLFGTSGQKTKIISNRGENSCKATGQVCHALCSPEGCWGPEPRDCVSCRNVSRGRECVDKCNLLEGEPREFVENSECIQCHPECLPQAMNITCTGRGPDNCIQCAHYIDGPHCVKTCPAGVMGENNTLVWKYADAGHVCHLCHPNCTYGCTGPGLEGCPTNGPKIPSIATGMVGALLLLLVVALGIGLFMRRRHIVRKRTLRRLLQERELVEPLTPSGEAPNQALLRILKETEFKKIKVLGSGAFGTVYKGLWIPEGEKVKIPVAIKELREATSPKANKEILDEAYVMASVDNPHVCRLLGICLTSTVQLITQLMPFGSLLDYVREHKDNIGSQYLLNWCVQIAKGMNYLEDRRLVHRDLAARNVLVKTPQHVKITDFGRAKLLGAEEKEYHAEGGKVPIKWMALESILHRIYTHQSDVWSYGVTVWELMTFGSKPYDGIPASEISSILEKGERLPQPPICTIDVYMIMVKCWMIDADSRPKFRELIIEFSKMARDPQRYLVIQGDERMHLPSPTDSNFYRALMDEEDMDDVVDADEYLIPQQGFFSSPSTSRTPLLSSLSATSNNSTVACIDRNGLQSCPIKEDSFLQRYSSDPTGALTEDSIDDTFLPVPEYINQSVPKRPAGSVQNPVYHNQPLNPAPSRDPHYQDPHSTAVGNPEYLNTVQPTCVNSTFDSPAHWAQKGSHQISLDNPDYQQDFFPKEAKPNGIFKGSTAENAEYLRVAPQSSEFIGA
Method: as §1, §2

[5] = molecular target: EGFR L858R/T790M/C797S (Homo sapiens, UniProt P00533, C797S/L858R/T790M); test: Biochemical EGFR kinase assay (Lance Ultra TR-FRET), L858R/T790M/C797S
Sequence of EGFR L858R/T790M/C797S (P00533 25-1210 T790M/C797S/L858R): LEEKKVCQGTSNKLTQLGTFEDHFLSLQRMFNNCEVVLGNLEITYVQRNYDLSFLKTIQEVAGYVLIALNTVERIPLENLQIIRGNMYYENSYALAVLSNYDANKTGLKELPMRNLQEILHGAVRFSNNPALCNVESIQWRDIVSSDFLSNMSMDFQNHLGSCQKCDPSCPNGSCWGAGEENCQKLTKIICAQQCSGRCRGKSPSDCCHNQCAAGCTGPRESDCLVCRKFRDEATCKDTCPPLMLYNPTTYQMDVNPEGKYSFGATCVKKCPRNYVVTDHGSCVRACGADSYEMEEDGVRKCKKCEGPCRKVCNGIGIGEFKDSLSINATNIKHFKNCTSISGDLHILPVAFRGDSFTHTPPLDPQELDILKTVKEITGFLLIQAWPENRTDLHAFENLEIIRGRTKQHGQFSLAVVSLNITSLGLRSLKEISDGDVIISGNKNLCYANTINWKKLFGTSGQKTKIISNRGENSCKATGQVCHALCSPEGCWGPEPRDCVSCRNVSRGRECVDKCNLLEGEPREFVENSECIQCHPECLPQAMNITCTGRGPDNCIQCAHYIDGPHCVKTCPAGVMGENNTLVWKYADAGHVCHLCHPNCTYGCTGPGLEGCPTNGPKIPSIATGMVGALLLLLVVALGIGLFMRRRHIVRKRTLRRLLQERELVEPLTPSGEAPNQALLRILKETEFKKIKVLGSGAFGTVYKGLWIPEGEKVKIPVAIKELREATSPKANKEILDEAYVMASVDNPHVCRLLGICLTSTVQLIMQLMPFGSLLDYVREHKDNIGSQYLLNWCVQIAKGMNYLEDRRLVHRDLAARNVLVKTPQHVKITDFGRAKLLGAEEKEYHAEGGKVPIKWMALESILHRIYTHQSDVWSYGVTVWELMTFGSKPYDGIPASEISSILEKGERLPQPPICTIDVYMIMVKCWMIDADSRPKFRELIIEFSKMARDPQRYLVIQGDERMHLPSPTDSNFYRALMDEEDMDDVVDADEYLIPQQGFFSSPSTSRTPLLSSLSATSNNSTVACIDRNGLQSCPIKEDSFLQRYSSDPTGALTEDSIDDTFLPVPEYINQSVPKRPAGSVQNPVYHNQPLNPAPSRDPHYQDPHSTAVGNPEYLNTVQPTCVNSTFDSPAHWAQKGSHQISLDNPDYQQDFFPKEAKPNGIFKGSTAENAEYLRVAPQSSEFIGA
Method: as §1, §2

[6] = IC50 WT (nM) 100 μM ATP, 100 μM ATP
[7] = Km ATP, read-out: IC50 WT (nM) Km ATP
[8] = IC50 del19/T790M/C797S (nM) 100 μM ATP, 100 μM ATP
[9] = Km ATP, read-out: IC50 del19/T790M/C797S (nM) Km ATP
[10] = IC50 del19/C797S (nM) 100 μM ATP, 100 μM ATP
[11] = Km ATP, read-out: IC50 del19/C797S (nM) Km ATP
[12] = IC50 L858R/C797S (nM) 100 μM ATP, 100 μM ATP
[13] = Km ATP, read-out: IC50 L858R/C797S (nM) Km ATP
[14] = IC50 L858R/T790M/C797S (nM) 100 μM ATP, 100 μM ATP
[15] = Km ATP, read-out: IC50 L858R/T790M/C797S (nM) Km ATP

Sequence of EGFR wildtype (WT) (P00533 25-1210): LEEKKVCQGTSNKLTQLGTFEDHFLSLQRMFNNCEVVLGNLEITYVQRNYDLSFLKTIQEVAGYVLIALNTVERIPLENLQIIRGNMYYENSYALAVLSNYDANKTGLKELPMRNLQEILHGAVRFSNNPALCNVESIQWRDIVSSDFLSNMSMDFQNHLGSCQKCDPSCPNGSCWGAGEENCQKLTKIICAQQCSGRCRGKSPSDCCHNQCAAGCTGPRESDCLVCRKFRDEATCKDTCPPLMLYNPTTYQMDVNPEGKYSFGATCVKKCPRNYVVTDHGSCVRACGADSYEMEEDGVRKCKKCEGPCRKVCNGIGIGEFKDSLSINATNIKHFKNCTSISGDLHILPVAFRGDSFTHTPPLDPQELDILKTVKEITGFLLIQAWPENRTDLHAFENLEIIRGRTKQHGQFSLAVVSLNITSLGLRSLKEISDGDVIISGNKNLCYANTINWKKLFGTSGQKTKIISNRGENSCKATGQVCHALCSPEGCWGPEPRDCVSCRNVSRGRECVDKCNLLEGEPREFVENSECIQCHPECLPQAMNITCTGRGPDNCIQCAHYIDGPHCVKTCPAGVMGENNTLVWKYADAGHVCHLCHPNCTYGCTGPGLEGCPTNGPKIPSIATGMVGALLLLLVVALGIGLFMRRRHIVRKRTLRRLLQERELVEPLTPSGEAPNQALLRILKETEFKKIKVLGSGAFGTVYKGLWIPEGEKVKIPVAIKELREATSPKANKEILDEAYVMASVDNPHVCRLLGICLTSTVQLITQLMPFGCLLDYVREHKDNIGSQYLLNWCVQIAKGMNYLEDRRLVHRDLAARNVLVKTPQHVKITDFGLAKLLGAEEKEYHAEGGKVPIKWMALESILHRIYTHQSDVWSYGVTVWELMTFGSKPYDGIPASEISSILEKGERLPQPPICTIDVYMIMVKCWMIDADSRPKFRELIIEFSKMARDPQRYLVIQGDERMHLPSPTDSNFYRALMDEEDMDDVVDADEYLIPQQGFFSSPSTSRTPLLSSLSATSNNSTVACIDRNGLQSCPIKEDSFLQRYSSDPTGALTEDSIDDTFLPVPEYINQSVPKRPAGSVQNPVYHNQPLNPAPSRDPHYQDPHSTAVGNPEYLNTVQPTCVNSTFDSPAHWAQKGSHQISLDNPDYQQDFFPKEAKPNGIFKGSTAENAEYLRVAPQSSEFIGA

Row | IC50 [1, 6] | IC50 [1, 7] | IC50 [2, 8] | IC50 [2, 9] | IC50 [3, 10] | IC50 [3, 11] | IC50 [4, 12] | IC50 [4, 13] | IC50 [5, 14] | IC50 [5, 15] | Structure (SMILES)
1 | > 10000 nM | 181 nM | 0.4 nM | 0.4 nM | 1.2 nM | 2.6 nM | 21.1 nM | 4 nM | 0.7 nM | 0.2 nM | O=C(c1cnc(Nc2ccnc(-c3cnn(S(=O)(=O)C4CC4)c3)n2)cc1N[C@H]1CC[C@@H](CO)CC1)C(F)F [Example 49, 1-(6-((2-(1-(Cyclopropylsulfonyl)-1H-pyrazol-4-yl)pyrimidin-4-yl)amino)-4-(((1s,4s)-4-(hydroxymethyl)cyclohexyl)amino)pyridin-3-yl)-2,2-difluoroethan-1-one]
2 | > 10000 nM | 12 nM | 0.6 nM | 0.2 nM | 2.3 nM | 0.9 nM | 28.9 nM | 2.7 nM | 0.7 nM | 0.1 nM | C[C@]1(O)CC[C@@H](Nc2cc(Nc3ccnc(-c4cnn(S(=O)(=O)C5CC5)c4)n3)ncc2C(=O)NCCF)CC1 [Example 76, 6-((2-(1-(Cyclopropylsulfonyl)-1H-pyrazol-4-yl)pyrimidin-4-yl)amino)-N-(2-fluoroethyl)-4-(((1s,4s)-4-hydroxy-4-methylcyclohexyl)amino)nicotinamide]
3 | 3160 nM | 24.6 nM | 0.1 nM | 0.1 nM | 2.6 nM | 1.6 nM | 30.7 nM | 2.6 nM | 0.2 nM | 0.1 nM | CN[C@H]1CC[C@H](CNc2cc(Nc3ccnc(-c4cnn(S(=O)(=O)C5CC5)c4)n3)ncc2C(=O)C2CC2)CC1 [Example 88, Cyclopropyl(6-((2-(1-(cyclopropylsulfonyl)-1H-pyrazol-4-yl)pyrimidin-4-yl)amino)-4-((((1r,4r)-4-(methylamino)cyclohexyl)methyl)amino)pyridin-3-yl)methanone]
4 | 6300 nM | – | 1 nM | – | 7.6 nM | – | 12.2 nM | – | 1.2 nM | – | O=C(c1cnc(Nc2ccnc(-c3cnn(S(=O)(=O)C4CC4)c3)n2)cc1NC1CCC(NCCN2CCCCC2)CC1)C1CC1 (stereo not drawn) [Example 56, Cyclopropyl(6-((2-(1-(cyclopropylsulfonyl)-1H-pyrazol-4-yl)pyrimidin-4-yl)amino)-4-((4-((2-(piperidin-1-yl)ethyl)amino)cyclohexyl)amino)pyridin-3-yl)methanone]
5 | – | 9.3 nM | – | 0.2 nM | – | 0.7 nM | – | 4.1 nM | – | 0.2 nM | NC[C@H]1CC[C@H](CNc2cc(Nc3ccnc(-c4cnn(S(=O)(=O)C5CC5)c4)n3)ncc2C(=O)C2CC2)CC1 [Example 67, (4-((((1r,4r)-4-(Aminomethyl)cyclohexyl)methyl)amino)-6-((2-(1-(cyclopropylsulfonyl)-1H-pyrazol-4-yl)pyrimidin-4-yl)amino)pyridin-3-yl)(cyclopropyl)methanone]
6 | – | 3.6 nM | – | 0.1 nM | – | 0.4 nM | – | 2.4 nM | – | 0.1 nM | CN(C)C[C@H]1CC[C@H](CNc2cc(Nc3ccnc(-c4cnn(S(=O)(=O)C5CC5)c4)n3)ncc2C(=O)C2CC2)CC1 [Example 58, Cyclopropyl(6-((2-(1-(cyclopropylsulfonyl)-1H-pyrazol-4-yl)pyrimidin-4-yl)amino)-4-((((1r,4r)-4-((dimethylamino)methyl)cyclohexyl)methyl)amino)pyridin-3-yl)methanone]
7 | > 10000 nM | – | 1.1 nM | – | 26 nM | – | 15.2 nM | – | 1.8 nM | – | O=C(c1cnc(Nc2ccnc(-c3cnn(S(=O)(=O)C4CC4)c3)n2)cc1NC1CCC(NCCO)CC1)C1CC1 (stereo not drawn) [Example 52, Cyclopropyl(6-((2-(1-(cyclopropylsulfonyl)-1H-pyrazol-4-yl)pyrimidin-4-yl)amino)-4-((4-((2-hydroxyethyl)amino)cyclohexyl)amino)pyridin-3-yl)methanone]
8 | > 10000 nM | – | 0.6 nM | – | 18 nM | – | 10.7 nM | – | 1 nM | – | CN(C)C1CCN(CCNC2CCC(Nc3cc(Nc4ccnc(-c5cnn(S(=O)(=O)C6CC6)c5)n4)ncc3C(=O)C3CC3)CC2)CC1 (stereo not drawn) [Example 57, Cyclopropyl(6-((2-(1-(cyclopropylsulfonyl)-1H-pyrazol-4-yl)pyrimidin-4-yl)amino)-4-((4-((2-(4-(dimethylamino)piperidin-1-yl)ethyl)amino)cyclohexyl)amino)pyridin-3-yl)methanone]
9 | – | 136 nM | – | 1.2 nM | – | 207 nM | – | 67.9 nM | – | 5.7 nM | CN(C)C[C@H]1CC[C@H](CNc2cc(Nc3ccnc(-c4cn[nH]c4)n3)ncc2C(=O)C2CC2)CC1 [Example 59, (6-((2-(1H-Pyrazol-4-yl)pyrimidin-4-yl)amino)-4-((((1r,4r)-4-((dimethylamino)methyl)cyclohexyl)methyl)amino)pyridin-3-yl)(cyclopropyl)methanone]

Continued, compound first:

Row | Structure (SMILES) | IC50 [1, 6] | IC50 [1, 7] | IC50 [2, 8] | IC50 [2, 9] | IC50 [3, 10] | IC50 [3, 11] | IC50 [4, 12] | IC50 [4, 13] | IC50 [5, 14] | IC50 [5, 15]
10 | C[C@]1(O)CC[C@@H](Nc2cc(Nc3ccnc(-c4cnn(S(=O)(=O)C5CC5)c4)n3)ncc2C(=O)C2CC2)CC1 [Example 33, Cyclopropyl(6-((2-(1-(cyclopropylsulfonyl)-1H-pyrazol-4-yl)pyrimidin-4-yl)amino)-4-(((1s,4s)-4-hydroxy-4-methylcyclohexyl)amino)pyridin-3-yl)methanone] | > 10000 nM | 13.9 nM | 0.8 nM | 1 nM | 1.7 nM | – | 6.5 nM | 0.9 nM | 0.8 nM | 0.3 nM
11 | CN[C@H]1CC[C@@H](Nc2cc(Nc3ccnc(-c4cnn(S(=O)(=O)C5CC5)c4)n3)ncc2C(=O)C2CC2)CC1 [Example 32, Cyclopropyl-(6-((2-(1-(cyclopropylsulfonyl)-1H-pyrazol-4-yl)pyrimidin-4-yl)amino)-4-(((1s,4s)-4-(methylamino)cyclohexyl)amino)pyridin-3-yl)methanone] | > 10000 nM | – | 1.2 nM | – | 51.1 nM | – | 54.7 nM | – | 2 nM | –
12 | CN(C)Cc1ccc(CNc2cc(Nc3ccnc(-c4cnn(C(F)F)c4)n3)ncc2C(=O)C2CC2)cc1 [Example 16, Cyclopropyl(6-((2-(1-(difluoromethyl)-1H-pyrazol-4-yl)pyrimidin-4-yl)amino)-4-((4-((dimethylamino)methyl)benzyl)amino)pyridin-3-yl)methanone] | – | 176 nM | – | 2.3 nM | – | 13.2 nM | – | 30.8 nM | – | 0.4 nM
13 | O=C(c1cnc(Nc2ccnc(-c3cnn(S(=O)(=O)C4CC4)c3)n2)cc1NC1CCOCC1)C1CC1 [Example 35, Cyclopropyl(6-((2-(1-(cyclopropylsulfonyl)-1H-pyrazol-4-yl)pyrimidin-4-yl)amino)-4-((tetrahydro-2H-pyran-4-yl)amino)pyridin-3-yl)methanone] | > 10000 nM | – | 5.2 nM | – | 602 nM | – | 543 nM | – | 23.1 nM | –
14 | CN(C)Cc1ccc(CNc2cc(Nc3ccnc(-c4cnn(S(=O)(=O)C5CC5)c4)n3)ncc2C(=O)C2CC2)s1 [Example 20, Cyclopropyl(6-((2-(1-(cyclopropylsulfonyl)-1H-pyrazol-4-yl)pyrimidin-4-yl)amino)-4-(((5-((dimethylamino)methyl)thiophen-2-yl)methyl)amino)pyridin-3-yl)methanone] | – | 239 nM | – | 2.2 nM | – | 415 nM | – | 59.2 nM | – | 3.9 nM
15 | CC(=O)c1cnc(Nc2ccnc(-c3cnn(S(=O)(=O)C4CC4)c3)n2)cc1NC(C)(C)C(C)O (stereo not drawn) [Example 46, 1-(6-((2-(1-(Cyclopropylsulfonyl)-1H-pyrazol-4-yl)pyrimidin-4-yl)amino)-4-((3-hydroxy-2-methylbutan-2-yl)amino)pyridin-3-yl)ethan-1-one] | – | 1410 nM | – | 0.6 nM | – | 290 nM | – | 471 nM | – | 7.3 nM
16 | O=C(c1cnc(Nc2ccnc(-c3cnn(S(=O)(=O)C4CC4)c3)n2)cc1NC1CCN(C2COC2)CC1)C1CC1 [Example 38, Cyclopropyl(6-((2-(1-(cyclopropylsulfonyl)-1H-pyrazol-4-yl)pyrimidin-4-yl)amino)-4-((1-(oxetan-3-yl)piperidin-4-yl)amino)pyridin-3-yl)methanone] | > 10000 nM | – | 2.7 nM | – | 231 nM | – | 200 nM | – | 9.9 nM | –
